Data as given in the NIST ThermoML archive (doi:10.1016/j.jct.2012.02.011).
± gives the expanded uncertainty stated by the source.

Assay: relative permittivity at various frequencies (dimensionless); xn = mol fraction of the nth substance listed
Details: 101.33 kPa, Liquid, Frequency=3 MHz, OH-301

Compound: CCOCCO [2-ethoxyethan-1-ol] + O=[N+]([O-])c1ccccc1
- relative permittivity (293.15 K, x2 = 0): 14.25 ± 0.04
- relative permittivity (293.15 K, x2 = 0.0499): 16.23 ± 0.05
- relative permittivity (293.15 K, x2 = 0.0997): 18.22 ± 0.05
- relative permittivity (293.15 K, x2 = 0.2): 21.92 ± 0.05
- relative permittivity (293.15 K, x2 = 0.3002): 25.24 ± 0.05
- relative permittivity (293.15 K, x2 = 0.4001): 28.2 ± 0.05
- relative permittivity (293.15 K, x2 = 0.5): 30.85 ± 0.06
- relative permittivity (293.15 K, x2 = 0.6003): 33.21 ± 0.06
- relative permittivity (293.15 K, x2 = 0.7): 34.94 ± 0.06
- relative permittivity (293.15 K, x2 = 0.7491): 35.66 ± 0.06
- relative permittivity (293.15 K, x2 = 0.7996): 36.11 ± 0.07
- relative permittivity (293.15 K, x2 = 0.8504): 36.37 ± 0.07
- relative permittivity (293.15 K, x2 = 0.9001): 36.43 ± 0.07
- relative permittivity (293.15 K, x2 = 0.9456): 36.26 ± 0.07
- relative permittivity (298.15 K, x2 = 0): 14.03 ± 0.04
- relative permittivity (298.15 K, x2 = 0.0499): 15.75 ± 0.05
- relative permittivity (298.15 K, x2 = 0.0997): 17.59 ± 0.05
- relative permittivity (298.15 K, x2 = 0.2): 21.16 ± 0.05
- relative permittivity (298.15 K, x2 = 0.3002): 24.4 ± 0.05
- relative permittivity (298.15 K, x2 = 0.4001): 27.24 ± 0.06
- relative permittivity (298.15 K, x2 = 0.5): 29.8 ± 0.06
- relative permittivity (298.15 K, x2 = 0.6003): 32.07 ± 0.06
- relative permittivity (298.15 K, x2 = 0.7): 33.75 ± 0.06
- relative permittivity (298.15 K, x2 = 0.7491): 34.39 ± 0.06
- relative permittivity (298.15 K, x2 = 0.7996): 34.77 ± 0.06
- relative permittivity (298.15 K, x2 = 0.8504): 35 ± 0.07
- relative permittivity (298.15 K, x2 = 0.9001): 34.99 ± 0.07
- relative permittivity (298.15 K, x2 = 0.9456): 34.87 ± 0.07
- relative permittivity (303.15 K, x2 = 0): 13.76 ± 0.04
- relative permittivity (303.15 K, x2 = 0.0499): 15.23 ± 0.05
- relative permittivity (303.15 K, x2 = 0.0997): 16.95 ± 0.05
- relative permittivity (303.15 K, x2 = 0.2): 20.41 ± 0.05
- relative permittivity (303.15 K, x2 = 0.3002): 23.54 ± 0.05
- relative permittivity (303.15 K, x2 = 0.4001): 26.32 ± 0.05
- relative permittivity (303.15 K, x2 = 0.5): 28.81 ± 0.05
- relative permittivity (303.15 K, x2 = 0.6003): 31.07 ± 0.06
- relative permittivity (303.15 K, x2 = 0.7): 32.71 ± 0.06
- relative permittivity (303.15 K, x2 = 0.7491): 33.29 ± 0.06
- relative permittivity (303.15 K, x2 = 0.7996): 33.6 ± 0.06
- relative permittivity (303.15 K, x2 = 0.8504): 33.73 ± 0.06
- relative permittivity (303.15 K, x2 = 0.9001): 33.69 ± 0.06
- relative permittivity (303.15 K, x2 = 0.9456): 33.66 ± 0.06
- relative permittivity (308.15 K, x2 = 0): 13.44 ± 0.04
- relative permittivity (308.15 K, x2 = 0.0499): 14.71 ± 0.05
- relative permittivity (308.15 K, x2 = 0.0997): 16.29 ± 0.05
- relative permittivity (308.15 K, x2 = 0.2): 19.67 ± 0.05
- relative permittivity (308.15 K, x2 = 0.3002): 22.77 ± 0.05
- relative permittivity (308.15 K, x2 = 0.4001): 25.46 ± 0.05
- relative permittivity (308.15 K, x2 = 0.5): 27.95 ± 0.05
- relative permittivity (308.15 K, x2 = 0.6003): 30.15 ± 0.05
- relative permittivity (308.15 K, x2 = 0.7): 31.81 ± 0.05
- relative permittivity (308.15 K, x2 = 0.7491): 32.33 ± 0.05
- relative permittivity (308.15 K, x2 = 0.7996): 32.6 ± 0.05
- relative permittivity (308.15 K, x2 = 0.8504): 32.69 ± 0.06
- relative permittivity (308.15 K, x2 = 0.9001): 32.64 ± 0.06
- relative permittivity (308.15 K, x2 = 0.9456): 32.67 ± 0.05
- relative permittivity (313.15 K, x2 = 0): 13.07 ± 0.04
- relative permittivity (313.15 K, x2 = 0.0499): 14.17 ± 0.04
- relative permittivity (313.15 K, x2 = 0.0997): 15.64 ± 0.05
- relative permittivity (313.15 K, x2 = 0.2): 18.98 ± 0.05
- relative permittivity (313.15 K, x2 = 0.3002): 22 ± 0.05
- relative permittivity (313.15 K, x2 = 0.4001): 24.66 ± 0.05
- relative permittivity (313.15 K, x2 = 0.5): 27.13 ± 0.05
- relative permittivity (313.15 K, x2 = 0.6003): 29.38 ± 0.06
- relative permittivity (313.15 K, x2 = 0.7): 31.04 ± 0.05
- relative permittivity (313.15 K, x2 = 0.7491): 31.52 ± 0.05
- relative permittivity (313.15 K, x2 = 0.7996): 31.76 ± 0.05
- relative permittivity (313.15 K, x2 = 0.8504): 31.81 ± 0.05
- relative permittivity (313.15 K, x2 = 0.9001): 31.79 ± 0.05
- relative permittivity (313.15 K, x2 = 0.9456): 31.9 ± 0.05

Compound: O=[N+]([O-])c1ccccc1 [nitrobenzene] + COCCO
- relative permittivity (293.15 K, x1 = 0.0505): 19.13 ± 0.05
- relative permittivity (293.15 K, x1 = 0.1011): 20.66 ± 0.05
- relative permittivity (293.15 K, x1 = 0.2003): 23.41 ± 0.05
- relative permittivity (293.15 K, x1 = 0.3003): 25.97 ± 0.05
- relative permittivity (293.15 K, x1 = 0.4002): 28.41 ± 0.05
- relative permittivity (293.15 K, x1 = 0.4998): 30.69 ± 0.06
- relative permittivity (293.15 K, x1 = 0.5997): 32.75 ± 0.06
- relative permittivity (293.15 K, x1 = 0.7001): 34.4 ± 0.06
- relative permittivity (293.15 K, x1 = 0.752): 35.1 ± 0.06
- relative permittivity (293.15 K, x1 = 0.8004): 35.62 ± 0.06
- relative permittivity (293.15 K, x1 = 0.8491): 36.03 ± 0.06
- relative permittivity (293.15 K, x1 = 0.8974): 36.21 ± 0.06
- relative permittivity (293.15 K, x1 = 0.9502): 36.26 ± 0.06
- relative permittivity (293.15 K, x1 = 1): 35.91 ± 0.06
- relative permittivity (298.15 K, x1 = 0.0505): 18.51 ± 0.05
- relative permittivity (298.15 K, x1 = 0.1011): 19.96 ± 0.05
- relative permittivity (298.15 K, x1 = 0.2003): 22.63 ± 0.05
- relative permittivity (298.15 K, x1 = 0.3003): 25.12 ± 0.05
- relative permittivity (298.15 K, x1 = 0.4002): 27.45 ± 0.05
- relative permittivity (298.15 K, x1 = 0.4998): 29.62 ± 0.06
- relative permittivity (298.15 K, x1 = 0.5997): 31.57 ± 0.06
- relative permittivity (298.15 K, x1 = 0.7001): 33.23 ± 0.06
- relative permittivity (298.15 K, x1 = 0.752): 33.87 ± 0.06
- relative permittivity (298.15 K, x1 = 0.8004): 34.35 ± 0.06
- relative permittivity (298.15 K, x1 = 0.8491): 34.74 ± 0.06
- relative permittivity (298.15 K, x1 = 0.8974): 34.89 ± 0.06
- relative permittivity (298.15 K, x1 = 0.9502): 34.94 ± 0.06
- relative permittivity (298.15 K, x1 = 1): 34.78 ± 0.06
- relative permittivity (303.15 K, x1 = 0.0505): 17.93 ± 0.05
- relative permittivity (303.15 K, x1 = 0.1011): 19.31 ± 0.05
- relative permittivity (303.15 K, x1 = 0.2003): 21.89 ± 0.05
- relative permittivity (303.15 K, x1 = 0.3003): 24.31 ± 0.05
- relative permittivity (303.15 K, x1 = 0.4002): 26.59 ± 0.05
- relative permittivity (303.15 K, x1 = 0.4998): 28.69 ± 0.05
- relative permittivity (303.15 K, x1 = 0.5997): 30.58 ± 0.05
- relative permittivity (303.15 K, x1 = 0.7001): 32.18 ± 0.06
- relative permittivity (303.15 K, x1 = 0.752): 32.8 ± 0.06
- relative permittivity (303.15 K, x1 = 0.8004): 33.24 ± 0.06
- relative permittivity (303.15 K, x1 = 0.8491): 33.57 ± 0.06
- relative permittivity (303.15 K, x1 = 0.8974): 33.72 ± 0.06
- relative permittivity (303.15 K, x1 = 0.9502): 33.8 ± 0.06
- relative permittivity (303.15 K, x1 = 1): 33.84 ± 0.05
- relative permittivity (308.15 K, x1 = 0.0505): 17.37 ± 0.05
- relative permittivity (308.15 K, x1 = 0.1011): 18.66 ± 0.05
- relative permittivity (308.15 K, x1 = 0.2003): 21.19 ± 0.05
- relative permittivity (308.15 K, x1 = 0.3003): 23.59 ± 0.05
- relative permittivity (308.15 K, x1 = 0.4002): 25.84 ± 0.05
- relative permittivity (308.15 K, x1 = 0.4998): 27.94 ± 0.05
- relative permittivity (308.15 K, x1 = 0.5997): 29.81 ± 0.05
- relative permittivity (308.15 K, x1 = 0.7001): 31.31 ± 0.05
- relative permittivity (308.15 K, x1 = 0.752): 31.91 ± 0.05
- relative permittivity (308.15 K, x1 = 0.8004): 32.3 ± 0.05
- relative permittivity (308.15 K, x1 = 0.8491): 32.61 ± 0.05
- relative permittivity (308.15 K, x1 = 0.8974): 32.76 ± 0.05
- relative permittivity (308.15 K, x1 = 0.9502): 32.88 ± 0.05
- relative permittivity (308.15 K, x1 = 1): 33.13 ± 0.05
- relative permittivity (313.15 K, x1 = 0.0505): 16.82 ± 0.05
- relative permittivity (313.15 K, x1 = 0.1011): 18.05 ± 0.05
- relative permittivity (313.15 K, x1 = 0.2003): 20.56 ± 0.05
- relative permittivity (313.15 K, x1 = 0.3003): 22.96 ± 0.05
- relative permittivity (313.15 K, x1 = 0.4002): 25.16 ± 0.05
- relative permittivity (313.15 K, x1 = 0.4998): 27.22 ± 0.05
- relative permittivity (313.15 K, x1 = 0.5997): 29.09 ± 0.05
- relative permittivity (313.15 K, x1 = 0.7001): 30.59 ± 0.05
- relative permittivity (313.15 K, x1 = 0.752): 31.17 ± 0.05
- relative permittivity (313.15 K, x1 = 0.8004): 31.54 ± 0.05
- relative permittivity (313.15 K, x1 = 0.8491): 31.8 ± 0.05
- relative permittivity (313.15 K, x1 = 0.8974): 32 ± 0.05
- relative permittivity (313.15 K, x1 = 0.9502): 32.2 ± 0.05
- relative permittivity (313.15 K, x1 = 1): 32.66 ± 0.04
